Literature values as cited in patent US20210038669A1, “Composition(s) for Topically Treating Pain” (priority 2016, published 2021).

Test system: neuropathic pain conditions (postherpetic neuralgia, trigeminal, postsurgical or post-traumatic neuralgia)
Settings: 5% patch, 5% cream, 5% gel, 8% spray; all but one study; third tier (very low quality) evidence

## CCN(CC)CC(=O)Nc1c(C)cccc1C [lidocaine, Lidocaine]
  pain relief versus placebo: better than placebo
